Experimental data: publication PMC8951040, “Determination of Flavonoids in Selected Scleranthus Species and Their Anti-Collagenase and Antioxidant Potential” (Molecules, 2022)
Where “and” joins values, the source holds several entries; their conditions need not be identical. Identical values can stand only once.

How the values were obtained:
[1] = DPPH radical scavenging assay; details: 30 min incubation, absorbance 517 nm; mean ± SD, triplicate
Protocol: Individual test compounds and extracts in methanol (130 µL) were added to 70 µL of a solution of DPPH (2,2-diphenyl-1-picrylhydrazyl). After 30 min of incubation, the absorbance was evaluated at 517 nm. The determination was performed in triplicate and corrected to a blank sample (pure methanol). The radical scavenging activity of the tested samples was expressed as Trolox equivalents, calculated from the standard curve.

[2] = ABTS radical cation assay (antioxidant assay kit CS0790); details: 5 min incubation, absorbance 405 nm; mean ± SD, triplicate
Protocol: Suppression of the production of the radical cation was measured using an antioxidant assay kit (CS0790). In brief, 10 µL of the test sample, 20 µL of myoglobin working solution, and 150 µL of ABTS working solution (containing ABTS substrate solution and 3% hydrogen peroxide) were mixed into a clear, flat-bottom 96-well plate. After 5 min of incubation, 100 µL of stop solution was added and absorbance was measured at 405 nm. The antioxidant concentration of tested samples was calculated using the equation obtained through linear regression of the Trolox standard curve.

[3] = CUPRAC assay (antioxidant assay kit MAK334); details: 10 min incubation, absorbance 570 nm; mean ± SD, triplicate
Protocol: The reducing power of copper ions was evaluated using an antioxidant assay kit (MAK334). Briefly, 20 µL of sample and 100 µL of reaction mix were added into separate wells in a 96-well plate. After 10 min of incubation, the absorbance endpoint was measured at 570 nm. Total antioxidant capacity was determined using a standard curve evaluated for Trolox.

[4] = biological target: collagenase from Clostridium histolyticum; assay: Anti-collagenase assay (FALGPA substrate); type: biochemical; details: 20 min at 37 °C, absorbance 335 nm, mean ± SD, triplicate
Protocol: The potential anti-collagenase activity was assessed as previously described. In short, a solution including 25 µL of collagenase from Clostridium histolyticum, 25 µL of Tricine buffer, and 25 µL of various levels of the extracts (SP1–SP6, SA1–SA6) or compounds (6–9) were incubated at 37 °C. After 20 min, 75 µL of FALGPA was added. Then, absorbance was measured at 335 nm. The experiment was performed in 50 mM Tris buffer. The blank was evaluated using Tricine buffer, instead of sample, and the positive control was epigallocatechin gallate (EGCG). All measurements were conducted in triplicate and the IC50 for each sample was calculated. The percentage of collagenase inhibitory activity (CoInh) was calculated as follows:Enzyme inhibition activity (%) = [1 − (B/S)] × 100%, where B is the blank and S is the sample.

[5] = FRAP ferric reducing antioxidant power assay kit; details: 1 h at 37 °C, absorbance 594 nm; mean ± SD, triplicate
Protocol: The […] of the investigated substances toward ferrous ions was assessed using a ferric reducing antioxidant power assay kit. Briefly, 10 µL of each sample (SP1–SP6, SA1–SA6, 1–9) was mixed with 190 µL of supplied reaction mix (containing FRAP Assay Buffer, FeCl3 solution, and FRAP Probe). After 1 h of incubation at 37 °C, the absorbance was measured at 594 nm. A blank solution containing 10 µL of MeOH instead of extract/compound solution was used. For further calculations, the ferrous standard curve was evaluated. Values are given as mM Ferrous equivalents. All tests were performed in triplicate.

Row | Compound | DPPH (radical scavenging activity, Trolox equivalents) [1] | ABTS (radical scavenging activity, Trolox equivalents) [2] | CUPRAC (Trolox equivalents) [3] | IC50 [4] | melting point | FRAP (Fe2+ equivalents) [5]
1 | COc1ccc(C(C)=O)c(O[C@@H]2O[C@H](CO[C@@H]3OC[C@](O)(CO)[C@H]3O)[C@@H](O)[C@H](O)[C@H]2O)c1 [Compound 5, Apiopaeonoside] | 61.96 ± 1.90 µM Teq | 444.23 ± 0.47 µM Teq | 48.46 ± 1.75 µM Teq |  |  | 
2 | COc1cc(-c2cc(=O)c3c(O)cc(O)c(C4OCC(O)C(O)C4OC4OC(CO)C(OC(C)=O)C(O)C4O)c3o2)ccc1OC(C)=O [Compound 6, 5,7-dihydroxy-3′-methoxy-4′-acetoxyflavone-8-C-β-D-arabinopyranoside-2″-O-(4‴-acetoxy)-glucoside] | 6.69 ± 0.97 µM Teq | 169.27 ± 1.68 µM Teq | 18.57 µM Teq and 18.57 ± 0.76 µM Teq | 39.6 ± 1.21 µM | 187 to 188 °C | 
3 | O=c1cc(-c2ccc(O)c(O)c2)oc2c(C3OC(CO)C(O)C(O)C3O)c(O)c(C3OCC(O)C(O)C3O)c(O)c12 [Compound 7, 5,7,3′,4′-tetrahydroxyflavone-6-C-xyloside-8-C-β-D-glucoside] | 409.16 ± 2.03 µM Teq | 796.61 ± 1.23 µM Teq | 116.16 µM Teq and 116.16 ± 0.76 µM Teq | 73.9 ± 1.03 µM |  | 
4 | O=c1cc(-c2cccc(O)c2)oc2c(C3OC(CO)C(O)C(O)C3O)c(O)c(C3OC(CO)C(O)C(O)C3O)c(O)c12 [Compound 8, 5,7,3′-trihydroxyflavone-6-C-glucoside-8-C-β-D-glucoside] | 176.71 ± 0.97 µM Teq | 369.24 ± 3.05 µM Teq | 27.15 ± 1.32 µM Teq | 53.4 ± 0.88 µM |  | 5.16 ± 0.96 mM Fe2+ equivalents
5 | COc1cc(-c2cc(=O)c3c(O)c(C4OC(CO)C(O)C(O)C4O)c(O)c(C4OCC(O)C(O)C4O)c3o2)ccc1O [Compound 9, 5,7,4′-trihydroxy-3′-methoxyflavone-6-C-β-D-glucopyranoside-8-C-α-arabinopyranoside] | 407.05 ± 1.83 µM Teq | 586.69 ± 2.91 µM Teq | 18.20 ± 0.76 µM Teq | 71.1 ± 0.97 µM |  | 9.07 ± 0.45 mM Fe2+ equivalents
6 | O=C(O[C@@H]1Cc2c(O)cc(O)cc2O[C@@H]1c1cc(O)c(O)c(O)c1)c1cc(O)c(O)c(O)c1 [EGCG, epigallocatechin gallate, reference compound] |  |  |  | 34.8 ± 0.53 µM |  | 
7 | scleranthoside A [Compound 1] | 405.15 ± 3.12 µM Teq | 765.16 ± 2.83 µM Teq | 581.32 µM Teq and 581.32 ± 3.61 µM Teq |  |  | 
8 | scleranthoside B [Compound 2] | 198.43 ± 2.40 µM Teq | 188.57 ± 1.86 µM Teq | 114.56 ± 2.04 µM Teq |  |  | 5.68 ± 0.68 mM Fe2+ equivalents
9 | scleranthoside C [Compound 3] | 7.11 ± 0.59 µM Teq | 198.57 ± 2.46 µM Teq | 67.30 µM Teq and 67.30 ± 1.30 µM Teq |  |  | 
10 | scleranthoside D [Compound 4] | 9.64 ± 0.82 µM Teq | 302.05 ± 2.42 µM Teq | 44.22 ± 1.35 µM Teq |  |  | 2.65 ± 0.47 mM Fe2+ equivalents
